Experimental data as given in patent publication US12606546B2, “Small molecule inhibitors of calcium channel activity and uses thereof” (Arizona Board of Regents on Behalf of the University of …, priority 2020, dated 2026).
Read-outs that look alike come from different tables or passages of the source.

Key:
CaV3.1 = target: T1, CaV3.1 (Homo sapiens, UniProt O43497); assay: Whole-cell patch clamp in HEK293T cells transiently expressing CaV3.1; assay type: cell-based; details: for effect on CaV3.1 mediated currents: 50 μM
T1 construct: expressed in transfected cells; host or cells: HEK293T
T1 sequence (O43497 whole entry): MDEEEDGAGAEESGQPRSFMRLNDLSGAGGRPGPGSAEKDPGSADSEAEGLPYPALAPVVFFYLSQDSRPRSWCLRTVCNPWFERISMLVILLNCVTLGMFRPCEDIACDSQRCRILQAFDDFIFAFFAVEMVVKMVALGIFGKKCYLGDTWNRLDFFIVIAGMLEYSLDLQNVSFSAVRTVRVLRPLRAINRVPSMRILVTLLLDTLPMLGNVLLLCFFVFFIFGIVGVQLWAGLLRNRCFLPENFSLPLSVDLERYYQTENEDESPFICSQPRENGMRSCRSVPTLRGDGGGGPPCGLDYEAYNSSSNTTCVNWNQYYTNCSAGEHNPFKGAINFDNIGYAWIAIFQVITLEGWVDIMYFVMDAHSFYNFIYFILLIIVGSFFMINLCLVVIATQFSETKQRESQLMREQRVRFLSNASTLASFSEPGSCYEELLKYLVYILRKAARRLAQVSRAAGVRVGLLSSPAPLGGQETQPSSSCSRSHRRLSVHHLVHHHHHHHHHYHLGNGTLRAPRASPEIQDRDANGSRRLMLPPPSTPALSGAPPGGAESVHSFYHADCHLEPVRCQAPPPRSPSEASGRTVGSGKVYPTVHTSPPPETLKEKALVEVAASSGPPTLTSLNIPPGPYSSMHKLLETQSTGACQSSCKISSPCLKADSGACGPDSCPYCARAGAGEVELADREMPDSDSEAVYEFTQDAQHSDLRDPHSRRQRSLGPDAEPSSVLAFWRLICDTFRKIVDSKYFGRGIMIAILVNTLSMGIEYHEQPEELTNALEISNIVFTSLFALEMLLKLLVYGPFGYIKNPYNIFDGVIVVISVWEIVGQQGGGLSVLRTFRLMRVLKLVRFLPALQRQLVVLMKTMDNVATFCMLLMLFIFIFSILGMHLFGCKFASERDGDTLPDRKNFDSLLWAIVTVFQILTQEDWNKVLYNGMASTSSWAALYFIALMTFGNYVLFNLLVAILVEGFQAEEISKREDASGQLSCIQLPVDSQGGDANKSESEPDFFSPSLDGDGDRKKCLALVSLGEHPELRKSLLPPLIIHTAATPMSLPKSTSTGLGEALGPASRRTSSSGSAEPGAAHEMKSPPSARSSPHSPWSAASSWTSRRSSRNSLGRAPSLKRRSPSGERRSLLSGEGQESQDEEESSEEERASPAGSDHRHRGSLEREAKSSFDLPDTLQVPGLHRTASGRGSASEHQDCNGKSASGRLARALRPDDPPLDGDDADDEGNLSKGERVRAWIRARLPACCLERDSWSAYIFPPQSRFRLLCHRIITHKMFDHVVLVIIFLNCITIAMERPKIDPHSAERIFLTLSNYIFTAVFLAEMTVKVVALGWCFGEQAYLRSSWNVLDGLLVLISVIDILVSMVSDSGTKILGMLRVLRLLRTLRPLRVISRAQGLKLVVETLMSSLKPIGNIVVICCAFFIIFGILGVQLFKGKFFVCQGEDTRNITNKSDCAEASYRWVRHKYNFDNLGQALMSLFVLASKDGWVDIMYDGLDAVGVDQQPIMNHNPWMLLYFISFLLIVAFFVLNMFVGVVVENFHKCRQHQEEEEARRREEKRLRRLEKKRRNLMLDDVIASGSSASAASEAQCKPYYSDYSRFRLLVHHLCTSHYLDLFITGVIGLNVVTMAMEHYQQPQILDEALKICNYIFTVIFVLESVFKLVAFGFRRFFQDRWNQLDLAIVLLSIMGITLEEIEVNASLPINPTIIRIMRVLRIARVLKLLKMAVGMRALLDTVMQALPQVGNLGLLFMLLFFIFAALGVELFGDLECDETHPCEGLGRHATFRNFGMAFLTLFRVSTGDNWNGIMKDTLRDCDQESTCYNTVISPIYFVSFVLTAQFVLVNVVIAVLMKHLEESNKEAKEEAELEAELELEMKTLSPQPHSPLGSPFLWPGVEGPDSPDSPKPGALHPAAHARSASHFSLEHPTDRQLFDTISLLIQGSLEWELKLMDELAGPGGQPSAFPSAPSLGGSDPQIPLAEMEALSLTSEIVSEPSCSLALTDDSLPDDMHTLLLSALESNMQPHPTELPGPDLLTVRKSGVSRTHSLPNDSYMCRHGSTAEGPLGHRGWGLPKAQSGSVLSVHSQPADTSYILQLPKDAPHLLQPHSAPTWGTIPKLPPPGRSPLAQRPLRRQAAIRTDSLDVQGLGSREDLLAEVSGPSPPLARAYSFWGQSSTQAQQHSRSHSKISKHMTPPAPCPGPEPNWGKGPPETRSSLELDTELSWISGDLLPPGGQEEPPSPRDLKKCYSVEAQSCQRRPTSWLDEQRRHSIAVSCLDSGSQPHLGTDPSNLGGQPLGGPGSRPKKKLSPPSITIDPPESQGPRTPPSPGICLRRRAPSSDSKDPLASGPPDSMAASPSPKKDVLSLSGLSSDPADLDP
Procedure: (§1) Human embryonic kidney HEK293T cells were cultured in DMEM supplemented with 10% fetal bovine serum and 1% penicillin/streptomycin sulfate, maintained in standard conditions (5% CO2, 37° C., saturated humidity). Cells were transfected with 2 μg of either of the channel cDNAs using Lipofectamine 2000 when cell confluence reached 70-90%. Four to six hours after transfection, cells were seeded onto poly-l-lysine-coated coverslips. Positively transfected cells were indicated by the fluorescence of co-transfected enhanced green fluorescent protein (0.2 μg). All the experiments were performed 36 hours after cell transfection.
(§2) For electrophysiological recording, the external solution contained (in mM): 105 CsCl, TEA-Cl, 2 CaCl2), 1 MgCl2, and 10 glucose (pH 7.4 adjusted with CsOH, and mOsm/L=295-305). The internal solution consisted of (in mM): 120 CsMeSO4, 11 EGTA, 2 Mg-ATP, and HEPES (pH 7.4 adjusted with CsOH, and mOsm/L=295-305). All experiments were conducted at room temperature (22-24° C.). The T-type calcium currents were elicited by a depolarization to −20 or −10 mV for 200-millisecond from a hold potential of −90 mV. Data were collected by the Patchmaster software in a HEKA EPC-10 USB patch-clamp system. Voltage errors were minimized by using 80% series resistance compensation. The capacitance artifact was canceled by using the computer-controlled circuitry of the patch-clamp amplifier. The concentration-response curves of the test compounds on CaV3 channels were fitted to a Hill equation to estimate the potency of the compounds (IC50).

[1] = test system: high voltage activated calcium channels; assay: Fura-2AM calcium imaging, 90 mM KCl-evoked Ca2+ influx in DRG neurons; details: separated enantiomers, data not shown
CaV3.3 = target: T2, CaV3.3 (Homo sapiens, UniProt Q9P0X4); assay: Whole-cell patch clamp in HEK293T cells transiently expressing CaV3.3; assay type: cell-based; details: for effect on CaV3.3 mediated currents: 50 μM
T2 construct: expressed in transfected cells; host or cells: HEK293T
Procedure: as §1, §2

[2] = test system: total calcium current in small- to medium-sized DRG neurons; assay: Whole-cell patch clamp of total Ca2+ currents in DRG neurons; assay type: cell-based, rat; details: for Activation V1/2 / Activation k (slope factor) / Inactivation V1/2 / Inactivation k (slope factor): Boltzmann fit, mean ± SEM; for peak calcium current density: overnight (DMSO −96.91±12.39); for reduction in Ca2+ currents at peak current density: overnight, compared to 0.1% DMSO
Procedure: Recordings were obtained from acutely dissociated DRG neurons as described in Bellampalli et al. Patch-clamp recordings were performed at room temperature (22-24° C.). Currents were recorded using an EPC 10 Amplifier-HEKA (HEKA Elektronik, Ludwigshafen, Germany) linked to a computer with Patchmaster software. DRG neurons were incubated overnight (˜16-24 h) with 20 μM of 3-25-R and 3-14-3-S.
For total calcium current (ICa^2+) recordings, the external solution consisted of the following (in mM): 110 N-methyl-D-glucamine, 10 BaCl2, 30 TEA-Cl, 10 HEPES, 10 glucose, 0.001 TTX (pH 7.29 adjusted with NaOH, and mOsm/L=310). Patch pipettes were filled with an internal solution containing (in mM): 150 […], 10 HEPES, 5 Mg-ATP, and 5 BAPTA, (pH 7.24 adjusted with CsOH, and from a holding potential of −90 mV to obtain the current-voltage (I-V) relation. Normalization of currents to each cell's capacitance (pF) was performed to allow for collection of current density data. For I-V curves, functions were fitted to data using a non-linear least squares analysis. I-V curves were fitted using double Boltzmann functions: f=a+g1/(1+exp((x−V1/21)/k1))+g2/(1+exp(−(x−V1/22)/k2)) where x is the prepulse potential, V1/2 is the mid-point potential and k is the corresponding slope factor for single Boltzmann functions. Double Boltzmann fits were used to describe the shape of the curve, not to imply the existence of separate channel populations. Numbers 1 and 2 simply indicate first and second mid-points; a along with g are fitting parameters.
Activation curves were obtained from the I-V curves by dividing the peak current at each depolarizing step by the driving force according to the equation: G=I/(Vmem−Erev), where I is the peak current, Vmem is the membrane potential and Erev is the reversal potential. The conductance (G) was normalized against the maximum conductance (Gmax). Steady-state inactivation (SSI) curves were obtained by applying an H-infinity protocol that consisted of 1.5-seconds conditioning pre-pulses from −100 to +30 mV in 10-mV increments followed by a 20-millisecond test pulse to +10 mV. Inactivation curves were obtained by dividing the peak current recorded at the test pulse by the maximum current (Imax). Activation and SSI curves were fitted with the Boltzmann equation.

CaV3.2 = target: T3, CaV3.2 (Homo sapiens, UniProt O95180); assay: Whole-cell patch clamp in HEK293T cells transiently expressing CaV3.2; assay type: cell-based; details: for effect on CaV3.2 mediated currents: 50 μM
T3 construct: expressed in transfected cells; host or cells: HEK293T
T3 sequence (O95180 whole entry): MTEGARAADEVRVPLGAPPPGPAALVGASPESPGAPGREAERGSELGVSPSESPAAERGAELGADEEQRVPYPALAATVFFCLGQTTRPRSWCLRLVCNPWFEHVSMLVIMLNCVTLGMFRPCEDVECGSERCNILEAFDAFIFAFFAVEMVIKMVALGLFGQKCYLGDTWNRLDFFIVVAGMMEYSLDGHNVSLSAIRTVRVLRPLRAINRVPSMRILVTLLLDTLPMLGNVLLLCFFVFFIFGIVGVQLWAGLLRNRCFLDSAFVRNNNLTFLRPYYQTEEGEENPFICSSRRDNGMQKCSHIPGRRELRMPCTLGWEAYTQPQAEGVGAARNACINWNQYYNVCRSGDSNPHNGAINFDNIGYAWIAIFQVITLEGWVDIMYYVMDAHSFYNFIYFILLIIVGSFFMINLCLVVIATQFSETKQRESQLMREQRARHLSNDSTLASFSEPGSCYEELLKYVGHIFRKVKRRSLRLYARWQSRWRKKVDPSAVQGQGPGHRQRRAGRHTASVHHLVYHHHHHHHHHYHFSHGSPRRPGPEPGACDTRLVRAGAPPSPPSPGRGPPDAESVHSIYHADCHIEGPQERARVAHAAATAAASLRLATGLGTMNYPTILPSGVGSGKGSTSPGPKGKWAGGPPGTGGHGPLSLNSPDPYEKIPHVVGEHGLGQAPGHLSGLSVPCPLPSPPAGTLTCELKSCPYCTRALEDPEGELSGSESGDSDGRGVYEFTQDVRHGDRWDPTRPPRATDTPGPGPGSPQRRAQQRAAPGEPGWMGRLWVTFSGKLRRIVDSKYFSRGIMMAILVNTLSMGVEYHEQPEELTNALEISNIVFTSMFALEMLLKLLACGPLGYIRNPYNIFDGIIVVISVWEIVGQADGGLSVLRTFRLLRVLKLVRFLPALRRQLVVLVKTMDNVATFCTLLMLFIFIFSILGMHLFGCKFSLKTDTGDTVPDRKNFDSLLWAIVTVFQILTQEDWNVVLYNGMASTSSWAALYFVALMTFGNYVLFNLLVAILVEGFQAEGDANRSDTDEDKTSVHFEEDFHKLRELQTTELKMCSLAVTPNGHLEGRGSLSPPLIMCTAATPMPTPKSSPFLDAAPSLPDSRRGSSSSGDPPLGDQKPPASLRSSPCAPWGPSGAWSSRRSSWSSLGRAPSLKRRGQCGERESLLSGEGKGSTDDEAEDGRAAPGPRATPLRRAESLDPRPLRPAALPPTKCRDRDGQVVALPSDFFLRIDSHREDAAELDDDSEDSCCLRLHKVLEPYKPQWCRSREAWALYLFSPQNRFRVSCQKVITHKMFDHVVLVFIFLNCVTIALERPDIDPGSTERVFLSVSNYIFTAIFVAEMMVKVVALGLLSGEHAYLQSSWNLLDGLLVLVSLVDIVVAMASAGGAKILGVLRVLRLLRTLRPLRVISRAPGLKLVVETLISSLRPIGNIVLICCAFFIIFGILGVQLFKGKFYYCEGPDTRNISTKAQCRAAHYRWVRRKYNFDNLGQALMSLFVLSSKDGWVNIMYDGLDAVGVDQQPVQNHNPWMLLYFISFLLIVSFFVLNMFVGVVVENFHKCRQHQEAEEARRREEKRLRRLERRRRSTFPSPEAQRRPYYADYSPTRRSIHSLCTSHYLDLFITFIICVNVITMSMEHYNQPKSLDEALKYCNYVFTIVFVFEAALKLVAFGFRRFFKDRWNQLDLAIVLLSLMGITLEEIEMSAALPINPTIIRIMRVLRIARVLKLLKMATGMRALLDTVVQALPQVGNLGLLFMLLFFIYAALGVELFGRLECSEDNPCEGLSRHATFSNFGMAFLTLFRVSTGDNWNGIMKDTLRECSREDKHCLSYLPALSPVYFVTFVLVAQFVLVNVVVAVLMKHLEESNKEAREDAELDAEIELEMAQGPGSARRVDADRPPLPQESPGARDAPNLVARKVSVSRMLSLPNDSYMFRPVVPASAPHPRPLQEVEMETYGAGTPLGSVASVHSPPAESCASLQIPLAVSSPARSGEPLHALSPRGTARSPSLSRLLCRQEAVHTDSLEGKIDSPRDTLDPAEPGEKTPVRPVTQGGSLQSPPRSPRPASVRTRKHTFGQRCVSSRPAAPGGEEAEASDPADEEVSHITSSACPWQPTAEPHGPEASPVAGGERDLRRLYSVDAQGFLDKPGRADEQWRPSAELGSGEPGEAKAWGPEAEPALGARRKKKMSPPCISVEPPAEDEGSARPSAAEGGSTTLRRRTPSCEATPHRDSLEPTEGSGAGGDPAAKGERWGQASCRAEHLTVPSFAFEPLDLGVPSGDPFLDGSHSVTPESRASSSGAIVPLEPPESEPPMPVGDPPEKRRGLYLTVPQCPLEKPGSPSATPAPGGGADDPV
Procedure: as §1, §2

rats [3] = details: oxaliplatin, paw immersion test, 100 mg/kg p.o., T60 min; cited from earlier work
rats [4] = assay: ALGOGram: carrageenan-induced mechanical hyperalgesia (paw pressure test); assay type: in vivo, rat; details: 0.4 μg/μl i.t., 120 min after treatment
Procedure: (§3) The analgesic profile of 3-14-3-S was analyzed by an in vivo screening tool, ALGOGram™ (ANS Biotech, Riom, France). This platform allowed for obtaining information about the effects of compounds in 5 different pain areas (Acute and tonic pain, inflammatory pain, neuropathic pain, postoperative pain and visceral pain), by comparing their activity on a battery of 10 validated behavioral pain models with an ANS Biotech reference historical database (Table 1). Assessment of the efficacy, and analgesic effects of a single administration (0.4 μg/μl, i.t.) 3-14-3-S was analyzed in the rat models of. Tail flick test in healthy rats, paw pressure test in healthy rats, acetic acid-induced writhing, formalin test, Bennett model of peripheral mononeuropathy, oxaliplatin-induced neuropathy, carrageenan-induced mechanical hyperalgesia, kaolin-induced arthritis, Brennan model of incisional pain; and trinitrobenzene sulfonic acid (TNBS)-induced visceral hypersensitivity (Table 2).
(§4) Testing: 120 min after treatment. n=4/model/test (excepted for 3-14-3-S-treated group in Oxaliplatin model n=3). Results are expressed for each group as a percentage of activity calculated from the mean value of the vehicle-treated animals and compared to naïve animals, control paw or cut-off value, depending on the test (from the ANS Biotech historical database). Ligand Docking

rats [5] = assay: ALGOGram: acetic acid test (abdominal cramps); assay type: in vivo, rat; details: 0.4 μg/μl i.t., 120 min after treatment
Procedure: as §3, §4

healthy rats [6] = assay: ALGOGram: healthy rats, paw pressure test; assay type: in vivo, rat; details: 0.4 μg/μl i.t., 120 min after treatment
Procedure: as §3, §4

healthy rats [7] = assay: ALGOGram: healthy rats, tail flick test; assay type: in vivo, rat; details: 0.4 μg/μl i.t., 120 min after treatment
Procedure: as §3, §4

rats [8] = assay: ALGOGram: TNBS-induced visceral hypersensitivity (colonic distension); assay type: in vivo, rat; details: 0.4 μg/μl i.t., 120 min after treatment
Procedure: as §3, §4

rats [9] = assay: ALGOGram: formalin test (paw licking time); assay type: in vivo, rat; details: 0.4 μg/μl i.t., 120 min after treatment
Procedure: as §3, §4

rats [10] = assay: ALGOGram: Bennett model of peripheral mononeuropathy (paw pressure test); assay type: in vivo, rat; details: 0.4 μg/μl i.t., 120 min after treatment
Procedure: as §3, §4

rats [11] = assay: ALGOGram: oxaliplatin-induced neuropathy (paw immersion test); assay type: in vivo, rat; details: 0.4 μg/μl i.t., 120 min after treatment, n=3
Procedure: as §3, §4

[12] = target: influenza virus polymerase PA-PB1 protein-protein interactions (Influenza A virus, UniProt P03433); details: previously tested [93]; cited from earlier work
healthy rats [13] = details: tail flick test, 4 mg/kg s.c., T30 min; cited from earlier work
healthy rats [14] = details: paw pressure test, 4 mg/kg s.c., T30 min; cited from earlier work
rats [15] = details: Brennan model, electronic Von Frey test, 4 mg/kg s.c., T30 min; cited from earlier work
rats [16] = details: formalin test, 4 mg/kg s.c., T30 min, cited from earlier work
rats [17] = details: kaolin, gait score, 30 mg/kg p.o., T60 min; cited from earlier work
rats [18] = details: carrageenan, paw pressure test, 30 mg/kg p.o., T60 min; cited from earlier work

## Cc1cccc(C)c1-n1nnnc1[C@@H](Cc1ccccc1)N1CCN(S(=O)(=O)c2ccccc2)CC1 [3-25-R]
CaV3.1
  effect on CaV3.1 mediated currents: negligible effects
[1]
  Ca2+ influx triggered with 90 mM KCl (response, normalized): 62.43±1.967%
CaV3.3
  effect on CaV3.3 mediated currents: negligible effects
[2]
  Activation V1/2: 2.383 ± 2.037 mV
  Activation k (slope factor): 9.659 ± 1.798
  Inactivation V1/2: −26.709 ± 2.655 mV
  Inactivation k (slope factor): −15.208 ± 2.714
  peak calcium current density: −54.1±8.385 pA/pF
  reduction in Ca2+ currents at peak current density: ~44.17%
CaV3.2
  effect on CaV3.2 mediated currents: negligible effects

## CNCC[C@H](Oc1cccc2ccccc12)c1cccs1 [Duloxetine]
Rats [3]
  Percentage of activity vs. vehicle, internal reference: 66%

## O=C(Nc1cccc([C@H](c2nnnn2Cc2ccccc2)N2CCN(C(=O)c3ccco3)CC2)c1)c1ccc(Br)cc1 [1-159-2-R]
[1]
  Ca2+ influx triggered with 90 mM KCl (response, normalized): 67.37±2.294%

## Cc1ccc([C@H](c2nnnn2Cc2ccccc2)N2CCN(C(=O)c3ccccc3)CC2)s1 [3-14-3-S]
Rats [4]
  Percentage of activity vs. vehicle: 29%
Rats [5]
  Percentage of activity vs. vehicle: 33%
Healthy rats [6]
  Percentage of activity vs. vehicle: 3%
CaV3.1
  effect on CaV3.1 mediated currents: inhibited
CaV3.1; depolarizing voltage of −10 mV
  IC50: 23 µM
Healthy rats [7]
  Percentage of activity vs. vehicle: 5%
[1]
  Ca2+ influx triggered with 90 mM KCl (response, normalized): 87.25±2.245%
Rats [8]
  Percentage of activity vs. vehicle: −11%
Rats [9]; paw licking time early phase
  Percentage of activity vs. vehicle: 16%
Rats [9]; paw licking time late phase
  Percentage of activity vs. vehicle: 36%
Rats [10]
  Percentage of activity vs. vehicle: 14%
CaV3.3
  effect on CaV3.3 mediated currents: inhibited
CaV3.3; depolarizing voltage of −10 mV
  IC50: 26.3 µM
[2]
  Activation V1/2: 4.083 ± 2.038 mV
  Activation k (slope factor): 9.308 ± 1.780
  Inactivation V1/2: −25.246 ± 2.129 mV
  Inactivation k (slope factor): −12.570 ± 2.035
  peak calcium current density: −41.70±7.927 pA/pF
  reduction in Ca2+ currents at peak current density: ~56.97%
Rats [11]
  Percentage of activity vs. vehicle: 6%
CaV3.2
  effect on CaV3.2 mediated currents: inhibited
CaV3.2; depolarizing voltage of −10 mV
  IC50: 35.6 µM

## C[C@@H](c1ccccc1)n1nnnc1[C@H](c1ccsc1)N1CCC(n2c(=O)[nH]c3ccccc32)CC1 [5bl, 1-{1-[(S)-{1-[(1S)-1-phenylethyl]-1H-1,2,3,4-tetrazol-5-yl}(thiophen-3-yl)methyl]piperidin-4-yl}-2,3-dihydro-1H-1,3-benzodiazol-2-one]
[12]
  inhibition of influenza virus polymerase PA-PB1 protein-protein interactions: active

## CN1CC[C@]23c4c5ccc(O)c4O[C@H]2[C@@H](O)C=C[C@H]3[C@H]1C5 [Morphine]
Healthy rats [13]
  Percentage of activity vs. vehicle, internal reference: 66%
Healthy rats [14]
  Percentage of activity vs. vehicle, internal reference: 67%
Rats [15]
  Percentage of activity vs. vehicle, internal reference: 107%
Rats [16]; early phase
  Percentage of activity vs. vehicle, internal reference: 65%
Rats [16]; late phase
  Percentage of activity vs. vehicle, internal reference: 77%

## COc1ccc2c(c1)c(CC(=O)O)c(C)n2C(=O)c1ccc(Cl)cc1 [Indomethacin]
Rats [17]
  Percentage of activity vs. vehicle, internal reference: 64%
Rats [18]
  Percentage of activity vs. vehicle, internal reference: 92%
